The NIST ThermoML archive (doi:10.1016/j.jct.2004.01.003)

Assay: mn = molality of the nth substance listed, in mol/kg
Details: 350 kPa, Liquid

O=[N+]([O-])[O-].O=[N+]([O-])[O-].[Ba+2] [barium dinitrate] + O
apparent molar volume [m3/mol]
Details | m1 = 0.02026 | m1 = 0.0208 | m1 = 0.03085 | m1 = 0.0401 | m1 = 0.05028 | m1 = 0.07046 | m1 = 0.1005 | m1 = 0.1931
278.15 K | 3.67e-05 | 3.55e-05 | 3.91e-05 | 3.99e-05 | 3.81e-05 | 4.19e-05 | 4.18e-05 | 4.43e-05
283.15 K | 3.99e-05 | 3.77e-05 | 4.13e-05 | 4.27e-05 | 4.16e-05 | 4.41e-05 | 4.44e-05 | 4.63e-05
288.15 K | 4.18e-05 | 4.07e-05 | 4.28e-05 | 4.4e-05 | 4.39e-05 | 4.53e-05 | 4.59e-05 | 4.77e-05
298.15 K | 4.32e-05 | 4.44e-05 | 4.64e-05 | 4.8e-05 | 4.82e-05 | 4.84e-05 | 4.9e-05 | 5.08e-05
308.15 K | 4.53e-05 | 4.61e-05 | 4.89e-05 | 5.05e-05 | 5.07e-05 | 5.07e-05 | 5.12e-05 | 5.3e-05
318.15 K | 4.89e-05 | 4.77e-05 | 4.97e-05 | 5.24e-05 | 5.25e-05 | 5.26e-05 | 5.27e-05 | 5.48e-05
328.15 K | 5.14e-05 | 5.01e-05 | 5.17e-05 | 5.39e-05 | 5.38e-05 | 5.39e-05 | 5.38e-05 | 5.57e-05
338.15 K | 5.31e-05 | 5.15e-05 | 5.29e-05 | 5.46e-05 | 5.43e-05 | 5.46e-05 | 5.47e-05 | 5.66e-05
348.15 K | 5.4e-05 | 5.21e-05 | 5.35e-05 | 5.52e-05 | 5.49e-05 | 5.51e-05 | 5.52e-05 | 5.71e-05
358.15 K | 5.5e-05 | 5.21e-05 | 5.38e-05 | 5.49e-05 | 5.53e-05 | 5.51e-05 | 5.54e-05 | 5.73e-05
368.15 K | 4.76e-05 | 5.17e-05 | 5.39e-05 | 5.44e-05 | 5.5e-05 | 5.46e-05 | 5.5e-05 | 5.71e-05
